Results published in patent US7476764B2, “Phenylcarboxyamides as beta-secretase inhibitors” (Bristol-Myers Squibb Company, priority 2005, dated 2009).
Where a name gives a salt, the structure may show the parent alone.

Target: T1, BACE1 enzyme (Homo sapiens, UniProt P56817)
T1 construct: The HEK293-9B.A1 cell line, which overexpresses the BACE1 enzyme, was derived from HEK293 cells; endogenous in cells; washed 48,000 x g pellet of the cell homogenate
Test: Radioligand displacement assay with a radiolabeled BACE inhibitor on HEK293-9B.A1 cell homogenate
Format: binding
Details: displacement of 1 nM tritiated radioligand, HEK293-9B.A1 homogenate, pH 5.0, 1.5 hr at 25° C.; read-out: Activity Rating (activity based on IC50 values)
Protocol: Radioligand displacement assays with a radiolabeled BACE inhibitor (WO 2004 013098, compound 3, where the methoxy group is substituted for C(^3H)3) were carried out using standard methods (Keen, M. (1999) in Receptor Binding Techniques (Walker, J. M. ed) p. 106 Humana Press, Totowa, N.J.). The HEK293-9B.A1 cell line, which overexpresses the BACE1 enzyme, was derived from HEK293 cells (Simmons, N. L. (1990) A cultured human renal epitheloid cell line responsive to vasoactive intestinal peptide. Exp. Physiol. 75:309-19.) by RAGE™ (Harrington, J. J. et al. (2001) Creation of genome-wide protein expression libraries using random activation of gene expression. Nat. Biotechnol. 19:440-5; U.S. Pat. Nos. 6,410,266 and 6,361,972). T225 flask cultures of HEK293-9B.A1 were grown to 80% confluency in DMEM supplemented with 2 mM L-glutamine, 10 μg/ml penicillin, 10 μg/ml streptomycin, 3 μg/ml puromycin, 100 nM methotrexate, and 10% fetal bovine serum (Invitrogen, Carlsbad, Calif.), harvested, and resuspended at 2×10^8 cells per 10 ml of lysis buffer consisting of 50 mM HEPES pH 7.0 containing a protease inhibitor cocktail of AEBSF 104 μM, aprotinin 80 nM, leupeptin 2 μM, bestatin 4 μM, pepstatin A 1.5 μM, and E-64 1.4 μM (0.1% of protease inhibitor cocktail P8340, Sigma-Aldrich, St. Louis, Mo.) at 4° C. The resuspended cells were homogenized using a Polytron (Brinkman, Westbury, N.Y.) at setting 6 for 10 sec., then centrifuged at 48,000×g for 10 min. The resulting pellet was washed by repeating the resuspension, homogenization and centrifugation steps. The final pellet was resuspended in buffer at 4° C. to yield a total protein concentration of 5 mg/ml, then aliquots were frozen in liquid nitrogen for further storage at −70° C. Immediately before carrying out a binding assay, an aliquot of cell homogenate was thawed and diluted to a concentration of 100 μg/ml in assay buffer consisting of 50 mM HEPES pH 5.0 and 0.1% CHAPSO. Assays were initiated in polypropylene 96-well plates (Costar, Cambridge, Mass.) by the addition of 200 μl of cell homogenate to 50 μl of assay buffer containing 1 nM radioligand (WO 2004 013098, compound 3, where the methoxy group is substituted for C(^3H)3: 80 Ci/mMol) and various concentrations of unlabelled compounds, and incubated for 1.5 hr. at 25° C. Separation of bound from free radioligand was by filtration on GFF glass fiber filters (Innotech Biosystems International, Lansing, Mich.) using an Innotech cell harvester.

T1 sequence (P56817 46-501): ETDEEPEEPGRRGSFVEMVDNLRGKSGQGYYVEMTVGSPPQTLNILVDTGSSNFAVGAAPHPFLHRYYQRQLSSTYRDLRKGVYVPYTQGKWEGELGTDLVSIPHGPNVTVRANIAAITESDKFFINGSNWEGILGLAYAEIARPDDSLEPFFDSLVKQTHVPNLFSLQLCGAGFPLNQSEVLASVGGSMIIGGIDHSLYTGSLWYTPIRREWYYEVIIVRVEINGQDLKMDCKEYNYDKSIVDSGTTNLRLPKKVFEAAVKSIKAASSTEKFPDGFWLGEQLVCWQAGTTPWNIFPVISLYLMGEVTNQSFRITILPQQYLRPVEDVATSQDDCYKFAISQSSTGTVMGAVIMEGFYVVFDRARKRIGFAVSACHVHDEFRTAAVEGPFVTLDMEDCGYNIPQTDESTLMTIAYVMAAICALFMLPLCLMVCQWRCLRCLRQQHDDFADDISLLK

## CCCN(CCC)C(=O)c1cc(C(C)=O)cc(C(=O)N[C@@H](Cc2cc(F)cc(F)c2)[C@H](O)CNCc2cccc(OC)c2)c1 [Example 1, N^1-((2S,3R)-4-(3-methoxybenzylamino)-1-(3,5-difluorophenyl)-3-hydroxybutan-2-yl)-5-acetyl-N^3,N^3-dipropylisophthalamide TFA salt]
  IC50: < 0.1 µM

## CCCN(CCC)C(=O)c1cc(C(=O)N[C@@H](Cc2cc(F)cc(F)c2)[C@H](O)CNCc2cccc(OC)c2)cc(C(C)O)c1 (stereo partly drawn) [Example 2, N^1-((2S,3R)-4-(3-methoxybenzylamino)-1-(3,5-difluorophenyl)-3-hydroxybutan-2-yl)-5-(1-hydroxyethyl)-N^3,N^3-dipropylisophthalamide TFA salt]
  IC50: < 0.1 µM

## CCCN(CCC)C(=O)c1cc(C(=O)N[C@@H](Cc2cc(F)cc(F)c2)[C@H](O)CNCc2cccc(OC)c2)cc(/C(C)=N/OC)c1 [Example 3, N^1-((2S,3R)-4-(3-methoxybenzylamino)-1-(3,5-difluorophenyl)-3-hydroxybutan-2-yl)-5-((E)-1-(methoxyimino)ethyl)-N^3,N^3-dipropylisophthalamide TFA salt]
  IC50: < 0.1 µM

## CCCN(CCC)C(=O)c1cc(C(=O)N[C@@H](Cc2cc(F)cc(F)c2)[C@H](O)CNCc2cccc(OC)c2)cc(/C(C)=N/OCc2ccccc2)c1 [Example 4, N^1-((2S,3R)-4-(3-methoxybenzylamino)-1-(3,5-difluorophenyl)-3-hydroxybutan-2-yl)-5-((E)-1-(benzyloxyimino)ethyl)-N^3,N^3-dipropylisophthalamide TFA salt]
  IC50: < 0.1 µM

## CCCN(CCC)C(=O)c1cc(C(=O)N[C@@H](Cc2cc(F)cc(F)c2)[C@H](O)CNCc2cccc(OC)c2)cc(/C(C)=N/O)c1 [Example 5, N^1-((2S,3R)-4-(3-methoxybenzylamino)-1-(3,5-difluorophenyl)-3-hydroxybutan-2-yl)-5-((E)-1-(hydroxyimino)ethyl)-N^3,N^3-dipropylisophthalamide hydrochloride]
  IC50: < 0.1 µM

## CCCN(CCC)C(=O)c1cc(C(=O)N[C@@H](Cc2cc(F)cc(F)c2)[C@H](O)CNCc2cccc(OC)c2)cc(/C(C)=N/OCC(C)C)c1 [Example 6, N^1-((2S,3R)-4-(3-methoxybenzylamino)-1-(3,5-difluorophenyl)-3-hydroxybutan-2-yl)-5-((E)-1-(isobutoxyimino)ethyl)-N^3,N^3-dipropylisophthalamide TFA salt]
  IC50: < 0.1 µM

## C=CCO/N=C(\C)c1cc(C(=O)N[C@@H](Cc2cc(F)cc(F)c2)[C@H](O)CNCc2cccc(OC)c2)cc(C(=O)N(CCC)CCC)c1 [Example 7, N^1-((2S,3R)-4-(3-methoxybenzylamino)-1-(3,5-difluorophenyl)-3-hydroxybutan-2-yl)-5-((E)-1-(allyloxyimino)ethyl)-N^3,N^3-dipropylisophthalamide TFA salt]
  IC50: < 0.1 µM

## CCCN(C)C(=O)c1cc(C(C)=O)cc(C(=O)N[C@@H](Cc2cc(F)cc(F)c2)[C@H](O)CNCc2cccc(OC)c2)c1 [Example 8, N^1-((2S,3R)-4-(3-methoxybenzylamino)-1-(3,5-difluorophenyl)-3-hydroxybutan-2-yl)-5-acetyl-N^3-methyl-N^3-propylisophthalamide TFA salt]
  IC50: < 0.1 µM

## CCCN(C)C(=O)c1cc(C(=O)N[C@@H](Cc2cc(F)cc(F)c2)[C@H](O)CNCc2cccc(OC)c2)cc(/C(C)=N/O)c1 [Example 9, N^1-((2S,3R)-4-(3-methoxybenzylamino)-1-(3,5-difluorophenyl)-3-hydroxybutan-2-yl)-5-((E)-1-(hydroxyimino)ethyl)-N^3-methyl-N^3-propylisophthalamide hydrochloride]
  IC50: < 0.1 µM

## CCCN(C)C(=O)c1cc(C(=O)N[C@@H](Cc2cc(F)cc(F)c2)[C@H](O)CNCc2cccc(OC)c2)cc(/C(C)=N/OC)c1 [Example 10, N^1-((2S,3R)-4-(3-methoxybenzylamino)-1-(3,5-difluorophenyl)-3-hydroxybutan-2-yl)-5-((E)-1-(methoxyimino)ethyl)-N^3-methyl-N^3-propylisophthalamide hydrochloride]
  IC50: < 0.1 µM

## CCCN(C)C(=O)c1cc(C(=O)N[C@@H](Cc2cc(F)cc(F)c2)[C@H](O)CNCc2cccc(OC)c2)cc(/C(C)=N/OCc2ccccc2)c1 [Example 11, N^1-((2S,3R)-4-(3-methoxybenzylamino)-1-(3,5-difluorophenyl)-3-hydroxybutan-2-yl)-5-((E)-1-(benzyloxyimino)ethyl)-N^3-methyl-N^3-propylisophthalamide hydrochloride]
  IC50: < 0.1 µM

## CCCN(C)C(=O)c1cc(C(=O)N[C@@H](Cc2cc(F)cc(F)c2)[C@H](O)CNCc2cccc(OC)c2)cc(/C(C)=N/OCC(C)C)c1 [Example 12, N^1-((2S,3R)-4-(3-methoxybenzylamino)-1-(3,5-difluorophenyl)-3-hydroxybutan-2-yl)-5-((E)-1-(isobutoxyimino)ethyl)-N^3-methyl-N^3-propylisophthalamide hydrochloride]
  IC50: < 0.1 µM

## C=CCO/N=C(\C)c1cc(C(=O)N[C@@H](Cc2cc(F)cc(F)c2)[C@H](O)CNCc2cccc(OC)c2)cc(C(=O)N(C)CCC)c1 [Example 13, N^1-((2S,3R)-4-(3-methoxybenzylamino)-1-(3,5-difluorophenyl)-3-hydroxybutan-2-yl)-5-((E)-1-(allyloxyimino)ethyl)-N^3-methyl-N^3-propylisophthalamide hydrochloride]
  IC50: < 0.1 µM

## CCCO/N=C(\C)c1cc(C(=O)N[C@@H](Cc2cc(F)cc(F)c2)[C@H](O)CNCc2cccc(OC)c2)cc(C(=O)N(C)CCC)c1 [Example 14, N^1-((2S,3R)-4-(3-methoxybenzylamino)-1-(3,5-difluorophenyl)-3-hydroxybutan-2-yl)-N^3-methyl-5-((E)-1-(propoxyimino)ethyl)-N^3-propylisophthalamide]
  IC50: < 0.1 µM

## CCCN(C)C(=O)c1cc(C(=O)N[C@@H](Cc2cc(F)cc(F)c2)[C@H](O)CNCc2cccc(OC)c2)cc(C(C)O)c1 (stereo partly drawn) [Example 15, hydrochloride]
  IC50: < 0.1 µM

## COc1cccc(CNC[C@@H](O)[C@H](Cc2cc(F)cc(F)c2)NC(=O)c2cc(C(C)=O)cc(S(C)(=O)=O)c2)c1 [Example 16, N^1-((2S,3R)-4-(3-methoxybenzylamino)-1-(3,5-difluorophenyl)-3-hydroxybutan-2-yl)-3-acetyl-5-(methylsulfonyl)benzamide TFA salt]
  IC50: 0.1 to 1 µM

## CO/N=C(\C)c1cc(C(=O)N[C@@H](Cc2cc(F)cc(F)c2)[C@H](O)CNCc2cccc(OC)c2)cc(S(C)(=O)=O)c1 [Example 17, N-((2S,3R)-4-(3-methoxybenzylamino)-1-(3,5-difluorophenyl)-3-hydroxybutan-2-yl)-3-((E)-1-(methoxyimino)ethyl)-5-(methylsulfonyl)benzamide TFA salt]
  IC50: 0.1 to 1 µM

## COc1cccc(CNC[C@@H](O)[C@H](Cc2cc(F)cc(F)c2)NC(=O)c2cc(/C(C)=N/OCc3ccccc3)cc(S(C)(=O)=O)c2)c1 [Example 18, N-((2S,3R)-4-(3-methoxybenzylamino)-1-(3,5-difluorophenyl)-3-hydroxybutan-2-yl)-3-((E)-1-(benzyloxyimino)ethyl)-5-(methylsulfonyl)benzamide TFA salt]
  IC50: 0.1 to 1 µM
